What was measured:
[1] = system: Ae. aegypti; assay: Minimum Effective Dosage (MED) test on treated cloth, mosquito repellency; type: in vivo, Aedes aegypti; conditions: for mosquito repellent activity against Ae. aegypti (in words): MED test on treated cloth; for Ae. aegypti Minimum Effective Dosage, M9: human subject M9; for Ae. aegypti Minimum Effective Dosage, M10: human subject M10; for Ae. aegypti Minimum Effective Dosage, F1: human subject F1; for Ae. aegypti Minimum Effective Dosage, M1: human subject M1; for Ae. aegypti Minimum Effective Dosage, M2: human subject M2; for Ae. aegypti Minimum Effective Dosage, Average: mean of 3 volunteers
Method: Bioassay for mosquito repellent activity: Repellency screening test for experimental chemicals were carried out to identify candidates that might be useful repellents. The repellent efficacy was compared to that of the standard repellent, DEET. Experimental compounds were assessed in one of two ways: (1) a range of concentration was evaluated to determine the minimum effective dosage (MED) which was the concentration threshold of where the repellent began to fail and allowed bites, or (2) a predetermined concentration of each repellent was applied to cloth and the activity was evaluated over several days (or in some cases months) (Katritzky, A. R., et al., Proc. Nat. Acad. Sci. (US), 105, 7359-7364 (2008); Katritzky, A. R., et al., Journal of Med. Entomol., 47: 924-938 (2010)). When conducting assays for repellency, a failure point was also predetermined for those measurements. Since experiments described herein used about 500 female mosquitoes per test, the failure point was set at 1% (equal to 5 bites) received during a test interval. From 3 to 5 volunteers participated in the screening of each set of chemicals.
Minimum Effective Dosage (MED) Test: The MED bioassays on treated cloth were a method of screening to determine the minimum amount of a repellent needed to prevent bites. Experimental compounds were prepared in solution by combining 0.15 g of experimental chemical with 2 mL of acetone in a 7.1 mL screwtop glass vial. This solution was then serially diluted to obtain nine concentrations when applied on to the cloth patch: 1.5, 0.75, 0.375, 0.187, 0.094, 0.047, 0.023, 0.011, and 0.006 mg/cm^2. The standard N,N-diethyl-3-methylbenzamide (DEET) was also tested at the same concentration levels to serve as a control and a comparison for relative repellency. A 50 cm^2 (5 cm×10 cm) patch of muslin cloth was rolled lengthwise and placed into each of the glass vials and scaled with a screwtop so it soaked up the solution. Just prior to the experiment, the pieces of treated cloth were removed from the vials, affixed to card stock tabs (5 cm×3 cm) with staples, and hung with masking tape on a rack to dry and allow acetone to evaporate. Volunteers wore a latex glove over their hands, a nylon stocking over their arm, and then wrapped a plastic Velcro-sealed sleeve over their entire forearm with a 32 cm^2 (4 cm×8 cm) window cut-out to allow mosquitoes to bite through. The nylon stocking acted as a barrier between the dried cloth and the skin, an additional precaution with experimental compounds. Dried cloth patches were stretched across the window in the plastic sleeve and held in place with masking tape. Volunteers placed their sleeve-covered arms into a screened cage for a one minute period with approximately 500 female Ae. aegypti mosquitoes that had been preselected for host-seeking behavior using a draw box (Posey, K. H., and C. E. Schreck, Mosquito News, 41: 566-568 (1981)). […] The MED recorded was the lowest passing concentration level tested for the experimental compound. […] All human volunteers in the study provided informed consent to participate of a protocol approved by the University of Florida Human Use Institutional Review Board (IRB #636-2005).

[2] = system: An. albimanus; assay: as above; type: in vivo, Anopheles albimanus; conditions: Table 4, highest concentration 1.500 mg/cm^2; for An. albimanus Minimum Effective Dosage, M4: subject M4; for An. albimanus Minimum Effective Dosage, M5: subject M5; for An. albimanus Minimum Effective Dosage, M8: subject M8; for An. albimanus Minimum Effective Dosage, M9: subject M9; for An. albimanus Minimum Effective Dosage, M10: subject M10
[3] = Table 1 preliminary assay, human subject M4, highest concentration 1.500 mg/cm^2
[4] = Table 1 preliminary assay, human subject M5, highest concentration 1.500 mg/cm^2
[5] = Table 1 preliminary assay, human subject M8, highest concentration 1.500 mg/cm^2
[6] = Table 1 preliminary assay, highest concentration 1.500 mg/cm^2
[7] = Table 5, subject M4, highest dose 0.375 mg/cm2 (0.187 for 7)
[8] = Table 5, subject M5, highest dose 0.375 mg/cm2 (0.187 for 7)
[9] = Table 5, subject M8, highest dose 0.375 mg/cm2 (0.187 for 7)
[10] = Table 2, highest concentration 1.500 mg/cm^2

Row | SMILES | mosquito repellent activity against Ae. aegypti (in words) [1] | Ae. aegypti Minimum Effective Dosage, M4 [1, 7] | Ae. aegypti Minimum Effective Dosage, M5 [1, 8] | Ae. aegypti Minimum Effective Dosage, M8 [1, 9] | Ae. aegypti Minimum Effective Dosage, F1 [1, 10] | Ae. aegypti Minimum Effective Dosage, M1 [1, 10] | Ae. aegypti Minimum Effective Dosage, M2 [1, 10] | further results
1 | CC(=O)c1ccc2c(c1O)C=CC(C)(C)O2 [Compound 3] | least repellent | – | – | – | – | – | – | Ae. aegypti Minimum Effective Dosage, M4 [1, 3]: >1.500 mg/cm^2; Ae. aegypti Minimum Effective Dosage, M5 [1, 4]: 0.187 mg/cm^2; Ae. aegypti Minimum Effective Dosage, M8 [1, 5]: >1.500 mg/cm^2; Ae. aegypti Minimum Effective Dosage, M9 [1, 6]: >1.500 mg/cm^2; Ae. aegypti Minimum Effective Dosage, M10 [1, 6]: >1.500 mg/cm^2; An. albimanus Minimum Effective Dosage, M4 [2]: 0.094 mg/cm^2; An. albimanus Minimum Effective Dosage, M5 [2]: >1.500 mg/cm^2; An. albimanus Minimum Effective Dosage, M8 [2]: >1.500 mg/cm^2; An. albimanus Minimum Effective Dosage, M9 [2]: 0.375 mg/cm^2; An. albimanus Minimum Effective Dosage, M10 [2]: >1.500 mg/cm^2
2 | COc1ccc(CO)c2c1C=CC(C)(C)O2 [Compound 4] | mixed results | – | – | – | – | – | – | Ae. aegypti Minimum Effective Dosage, M4 [1, 3]: >1.500 mg/cm^2; Ae. aegypti Minimum Effective Dosage, M5 [1, 4]: 0.375 mg/cm^2; Ae. aegypti Minimum Effective Dosage, M8 [1, 5]: 0.375 mg/cm^2; Ae. aegypti Minimum Effective Dosage, M9 [1, 6]: 0.750 mg/cm^2; Ae. aegypti Minimum Effective Dosage, M10 [1, 6]: >1.500 mg/cm^2; An. albimanus Minimum Effective Dosage, M4 [2]: >1.500 mg/cm^2; An. albimanus Minimum Effective Dosage, M5 [2]: >1.500 mg/cm^2; An. albimanus Minimum Effective Dosage, M8 [2]: >1.500 mg/cm^2; An. albimanus Minimum Effective Dosage, M9 [2]: 0.750 mg/cm^2; An. albimanus Minimum Effective Dosage, M10 [2]: >1.500 mg/cm^2
3 | COC(=O)c1ccc2c(c1)C=CC(C)(C)O2 [Compound 5] | mixed results | – | – | – | – | – | – | Ae. aegypti Minimum Effective Dosage, M4 [1, 3]: >1.500 mg/cm^2; Ae. aegypti Minimum Effective Dosage, M5 [1, 4]: 0.375 mg/cm^2; Ae. aegypti Minimum Effective Dosage, M8 [1, 5]: 0.187 mg/cm^2; Ae. aegypti Minimum Effective Dosage, M9 [1, 6]: 0.375 mg/cm^2; Ae. aegypti Minimum Effective Dosage, M10 [1, 6]: >1.500 mg/cm^2; An. albimanus Minimum Effective Dosage, M4 [2]: 0.187 mg/cm^2; An. albimanus Minimum Effective Dosage, M5 [2]: 0.375 mg/cm^2; An. albimanus Minimum Effective Dosage, M8 [2]: >1.500 mg/cm^2; An. albimanus Minimum Effective Dosage, M9 [2]: 0.187 mg/cm^2; An. albimanus Minimum Effective Dosage, M10 [2]: 0.750 mg/cm^2
4 | COC(=O)c1cccc2c1C=CC(C)(C)O2 [Compound 6] | ineffective at the highest dosage tested | >0.375 mg/cm^2 | >0.375 mg/cm^2 | >0.375 mg/cm^2 | – | – | – | –
5 | CC1(C)C=Cc2cc(CO)ccc2O1 [Compound 7] | ineffective | >0.187 mg/cm^2 | >0.187 mg/cm^2 | >0.187 mg/cm^2 | – | – | – | –
6 | COC(=O)c1ccc2c(c1)OC(C)(C)C=C2 [Compound 8] | ineffective | >0.375 mg/cm^2 | >0.375 mg/cm^2 | >0.375 mg/cm^2 | – | – | – | –
7 | COC(=O)Cc1ccc2c(c1)C=CC(C)(C)O2 [Compound 10] | – | >0.375 mg/cm^2 | >0.375 mg/cm^2 | >0.375 mg/cm^2 | 0.375 mg/cm^2 | 0.750 mg/cm^2 | 0.375 mg/cm^2 | Ae. aegypti Minimum Effective Dosage, Average ([1]; Table 2): 0.500 mg/cm^2
8 | CC1(C)C=Cc2ccc(Cl)cc2O1 [Compound 12] | – | – | – | – | 0.750 mg/cm^2 | 0.750 mg/cm^2 | 0.750 mg/cm^2 | Ae. aegypti Minimum Effective Dosage, Average ([1]; Table 2): 0.750 mg/cm^2
9 | COC(=O)c1ccc(Cl)c2c1C=CC(C)(C)O2 [Compound 14, Methyl 8-chloro-2,2-dimethyl-2H-chromene-5-carboxylate] | – | – | – | – | >1.500 mg/cm^2 | >1.500 mg/cm^2 | >1.500 mg/cm^2 | –
10 | CC1(C)C=Cc2cccc(Cl)c2O1 [Compound 15] | – | – | – | – | 0.094 mg/cm^2 | 0.094 mg/cm^2 | 0.187 mg/cm^2 | Ae. aegypti Minimum Effective Dosage, Average ([1]; Table 2): 0.125 mg/cm^2
11 | COC(=O)c1c(Cl)ccc2c1C=CC(C)(C)O2 [Compound 16] | – | – | – | – | >1.500 mg/cm^2 | >1.500 mg/cm^2 | >1.500 mg/cm^2 | –
12 | COCc1cccc2c1C=CC(C)(C)O2 [Compound 18, 5-(methoxymethyl)-2,2-dimethyl-2H-chromene] | diminished repellent activity | 0.047 mg/cm^2 | 0.047 mg/cm^2 | 0.187 mg/cm^2 | – | – | – | Ae. aegypti Minimum Effective Dosage, Average ([1]; Table 5): 0.094 mg/cm^2
13 | COCCc1ccc2c(c1)C=CC(C)(C)O2 [Compound 19, 6-(2-methoxyethyl)-2,2-dimethyl-2H-chromene] | did not show any improvement of activity | >0.375 mg/cm^2 | >0.375 mg/cm^2 | >0.375 mg/cm^2 | – | – | – | –
